Literature values, collected in patent publication US4093713A, “Dipeptide derivatives with central nervous system activity and preparation thereof” (Ayerst McKenna & Harrison Ltd., priority 1977, dated 1978).
Like-named read-outs stand apart in the source and are kept apart here.

Assays:
[1] = in vivo
[2] = system: effects of oxotremorin; settings: literature: Plotnikoff 1972
[3] = system: sedative effects of deserpidine; settings: mice; literature: Plotnikoff
[4] = system: behavioral effects of L-DOPA; settings: literature: Plotnikoff 1971, Friedman 1973
[5] = system: sedative effects of deserpidine; settings: monkeys; literature: Plotnikoff

Q: Which duration of action [1] does the source give for “H-L-prolyl-L-leucyl-glycinamide [H-Pro-Leu-Gly-NH2]” here?
A: short duration of action

Q: What about the “first step in the inactivation” value [1] of the same substance?
A: proteolytic cleavage of the Pro-Leu bond with formation of proline and leucyl-glycinamide

Q: And the “antagonism of the effects of oxotremorin” value [2]?
A: antagonizes the effects of oxotremorin

Q: What about the “reversal of the sedative effects of deserpidine” value [3] of the same substance?
A: reverses the sedative effects of deserpidine

Q: What about the “potentiation of the behavioral effects of L-DOPA” value [4] of the same substance?
A: potentiates the behavioral effects of (3,4-dihydroxyphenyl)-L-alanine (L-DOPA)

Q: And the “reversal of the sedative effects of deserpidine” value [5]?
A: reverses the sedative effects of deserpidine
